In patent US20250161255A1, “NEW THERAPY AND PREVENTION FOR SUPPRESSING AGING-RELATED DISORDERS INCLUDING SARCOPENIA” (priority 2022, published 2025):
Where a name gives a salt, the structure may show the parent alone.

Key:
[1] = system: model mice (C57BL/6J); experiment: Frailty index test; format: in vivo, mouse
Procedure: The above model mice were orally administered 1000 mg/kg/day of ambroxol hydrochloride from 50 to 81 weeks of age, and frailty associated with aging was confirmed by means of a frailty index test. The evaluated items of the frailty index test are as follows, and an evaluation standard in accordance with clinical symptoms (0=no symptoms, 0.5=mild symptoms, 1=severe symptoms) was employed. • Hair, skin • Alopecia Whether there is hair loss • Loss of fur color Change in fur color from black to gray, brown, or white • Dermatitis Whether there is skin inflammation • Loss of whiskers Loss of hair and whiskers around nose • Coat condition Condition of coat, smoothness and shine of fur • Physical/musculoskeletal • Tumors Presence/absence of tumor • Distended abdomen Abdomen enlarged compared to surrounding • Kyphosis Check by stroking back • Tail stiffening Whether tail wraps freely when stroked, stiffness • Gait disorder Difficulty in walking, wide stance • Tremor Whether there are age-related tremors • Forelimb grip strength Strength of grip on wire mesh when pulled by the tail • Body condition score Check visual signs of bony protuberance, muscle wasting, obesity • Vestibulocochlear/auditory • Vestibular disturbance Balance, orientation, acceleration • Hearing loss Whether there is response when clicker is sounded from behind • Ocular/nasal • Cataracts Clouding of lens of eye • Corneal opacity Cloudy cornea • Eye discharge/swelling Eyes swollen, abnormal secretions or crusting • Microphthalmia One or both eyes are small and/or sunken • Vision loss Whether the mouse reaches toward the ground when lowered by the tail (also use a ruler) • Menace reflex Whether there is response when foreign object is brought near eyes • Nasal discharge Whether there is nasal discharge • Digestive/urogenital • Malocclusion Whether there are malocclusions or overgrown teeth • Rectal prolapse Whether there is protrusion of rectum • Vaginal/uterine/penile prolapse Check genitals • Diarrhea Check cage bedding • Respiratory • Breathing rate/depth Check for dyspnea, breath sounds (rales), tachypnea, • Discomfort • Mouse Grimace Scale Assess nose bulge, cheek bulge, ear angle, whisker change • Piloerection Whether there is stiff hair or bristling even when stroked • Other (compared to reference values) • Temperature Take average of two readings • Weight Measure weight
(§1) Grip strength was evaluated by means of a measurement of grip strength called the grip test, using a muscle strength measuring device (Muromachi Kikai, MK-380S). Specifically, the mouse was made to grasp a mesh made of wire (wire mesh) with its front and back legs, and its tail was pulled back horizontally little by little until the mouse released the wire mesh. The maximum muscle strength at that time was measured.
The above model mice were given 307.2 mg/kg/day of L-carbocysteine in drinking water for 23 weeks starting at the age of 49 weeks, and frailty index test was performed as in Example 2-5 above to confirm age-related frailty and the like.

[2] = system: C2C12 cells; experiment: Gene expression in cultured C2C12 cells, treated versus untreated; format: cell-based, mouse; details: treated vs untreated cells; Q<0.05; FIG. 13
Procedure: C2C12 cells, which are derived from striated muscle of mice, were cultured and treated with ambroxol hydrochloride.

[3] = system: gene expression in (gastrocnemius or soleus) muscle; experiment: Genetic analysis (RNA-seq) of muscle of administered aged mice; format: in vivo, mouse; details: FDR <0.05
Text: The procedure and reagents used are as follows. The quality of all reads was checked using FastQC v0.11.8 and low-quality reads were removed using Trimmomatic (ver 0.38). LEADING: 20 (cut bases off the start of a read if quality score is less than 20), TRAILING: 20, SLIDING WINDOW: 4:15 (window size 4, average quality 15), MINLEN: 36 (drop reads if the length is less than […]) Each read obtained after filtering was mapped to the reference genome GRCm38 using STAR (ver2.7.0.f). Mapping was performed using the default values of STAR. Since the reads were paired-end with a length of 150 bp, a STAR index for reference genome GRCm38 was created in accordance with the length of 150 to perform mapping. Index generation was performed as follows: • Run Mode; genomeGenerate • Reference; GRCm38 • Annotation file; genecode version M24 • sjdbOverhang; 150 • alignment was performed using the index generated above. • Other than the foregoing, no options were added and the default values were used. • (Basic options were as follows.) • genomeDir; index generated above […] At this time, gene symbols as defined in genecode version M24 were counted. Regarding the calculated count numbers, genes with count data of 0 in all samples were filtered, TMM normalization was performed using edgeR (ver3.22.3), and correction between samples was performed. First, to obtain an overview of the data, principal component analysis and clustering analysis were performed using the count data after removing low-expressing genes. Expression changes of the specified patterns were compared based on the obtained expression values. edgeR was used to test for differentially expressed genes. […] Gene enrichment analysis was performed on the obtained variable genes using gprofiler2 (version 0.1.6). The expression values of the obtained differentially expressed genes were normalized, then extracted and visually depicted as a heat map to confirm the differential expressions. […] This analysis was performed using […] 1.8.0). In […], analysis was performed using a mouse database relating to 10 kbp upstream the TSS, stored in […]. Details of the analysis are as follows (cited from https://scenic.aertslab.org/tutorials/[…]). In the present example, gene regulation involved in the ambroxol hydrochloride of the present invention was investigated using model mice to identify genes useful for the diagnosis and treatment of sarcopenia, in the same manner as in Example 1. […] From the analysis of upstream transcription factors shown in FIG. 12, new transcription factors involved in differentiation and cellular senescence were observed as upstream factors.

[4] = Body weight and behaviour observed during the administration period; format: in vivo, mouse
Procedure: L-ethylcysteine hydrochloride was orally administered to aged mice from 40 to 79 weeks of age. The dose was 1000 mg/kg/day.
Ambroxol hydrochloride was orally administered to aged mice from 50 to 77 weeks of age. The dose was 9.21 mg/kg/day.

[5] = system: aged mice; experiment: Contextual fear conditional (CFC) test of fear memory; format: in vivo, mouse; details: 77-week-old aged mice after ambroxol hydrochloride administration; vs PBS; FIG. 8
Procedure: Cognition and memory of the 77-week-old aged mice of Example 2-2 were evaluated by means of a contextual fear conditional (CFC) test. In the cognition and memory experiment, memory is evaluated in two ways: fear memory and spatial memory; fear memory is evaluated based on the time the subject freezes and stops moving after receiving an electric shock. […] Regarding spatial memory, when a mouse is placed on a white disk and a strong light is illuminated thereon, the mouse, which is nocturnal, will try to escape to a dark place. The disk has 20 holes, of which 19 are blocked and only one through which escape is possible. The mouse is then trained for six days to memorize the location of that one hole. The degree to which the mouse could remember the location of the hole was evaluated one day later and one week later (reference: https://www.nature.com/protocolexchange/protocols/349Reiserer).
In this example, fear memory was evaluated using the CFC test. Fear memory was assessed by CFC after administration of ambroxol hydrochloride to 77-week-old, aged mice of Example 2-2.

[6] = system: aged mice (C57BL/6J); experiment: Treadmill test of muscle strength (endurance) in aged mice; format: in vivo, mouse; details: vs PBS
Text: To confirm that muscle strength decline would be observed in model mice (C57BL/6J) (purchased from ORIENTAL YEAST), muscle strength (endurance) in 79-week-old aged mice was checked in a treadmill test as follows.
Before recording performance, the mice were trained for three days so as to become familiarized with the equipment. An electrical stimulation grid was adjusted to 1 mA and the gradient was set to 15 degrees. On the first day of training, the mice were made to walk on the treadmill for 10 min at a speed of 10 m/min, rest for 10 min, and then walk for 10 min at a speed of 10 m/min. On the second and third days, the first two steps were performed under the same conditions as on the first day, after which walking was started at 10 m/min, and then increasing the speed by 1 m/min each minute up to a maximum speed of 20 m/min. Maximum exercise endurance was measured on the fourth day. Six mice were placed on the treadmill and the belt speed was started at 5 m/min for 5 min to warm up the mice. The speed was increased by 1 m/min to a maximum of 20 m/min. After 5 minutes of running, the speed was increased from 20 m/min to 21 m/min for 10 minutes. The mice were then forced to run at 22 m/min until they remained on the electrical stimulation grid for 10 seconds, and the distance they ran until they remained for 10 seconds was measured. […]

[7] = system: model mice (C57BL/6J); experiment: Grip test with muscle strength measuring device (MK-380S); format: in vivo, mouse; details: oral 1000 mg/kg/day from 50 to 81 weeks of age; FIG. 19
Procedure: as §1

[8] = system: aged mice; experiment: Muscle mass in aged mice, with or without exercise; format: in vivo, mouse
[9] = mice administered ambroxol hydrochloride, FIG. 9
[10] = aged mice administered L-ethylcysteine hydrochloride, FIG. 2

Question: What does the source list for `Nc1c(Br)cc(Br)cc1CNC1CCC(O)CC1` (stereo not shown) [Ambroxol hydrochloride, ambroxol hydrochloride]?
Answer: frailty index: coat condition ([1]; oral 1000 mg/kg/day from 50 to 81 weeks of age): improved; frailty index: skin condition (hair, skin) ([1]; oral 1000 mg/kg/day from 50 to 81 weeks of age, FIG. 18): improved; frailty index: osteoporosis (physical/musculoskeletal) ([1]; oral 1000 mg/kg/day from 50 to 81 weeks of age, FIG. 20): improved; number of genes with decreased expression in C2C12 cells [2]: 54 genes; number of genes with increased expression in C2C12 cells [2]: 53 genes; number of genes with decreased expression in muscle [3, 9]: 204 genes; number of genes with increased expression in muscle [3, 9]: 164 genes; changes in body weight or behavioral abnormalities during administration ([4]; oral 9.21 mg/kg/day, 50 to 77 weeks of age): no significant changes in body weight or behavioral abnormalities; CFC Freezing scores / cognitive performance [5]: improved CFC Freezing scores and increased cognitive performance; muscle strength (endurance) by treadmill test ([6]; oral 9.21 mg/kg/day from 50 to 77 weeks of age, measured at 77 weeks, FIG. 7): increase in muscle strength; muscle strength (grip strength) [7]: improved

Question: What does the source list for `CCOC(=O)[C@@H](N)CS` [L-ethylcysteine hydrochloride]?
Answer: number of genes with decreased expression in muscle [3, 10]: 92 genes; number of genes with increased expression in muscle [3, 10]: 158 genes; changes in body weight or behavioral abnormalities during administration ([4]; oral 1000 mg/kg/day, 40 to 79 weeks of age): no significant changes in body weight or behavioral abnormalities; muscle strength (endurance) by treadmill test ([6]; oral 1000 mg/kg/day from 40 to 79 weeks of age, measured at 79 weeks, FIG. 1): increase in muscle strength; muscle mass in aged mice ([8]; administration alone): increased muscle mass; muscle mass in aged mice ([8]; administration in combination with exercise): significantly restored muscle mass

Question: For `N[C@@H](CSCC(=O)O)C(=O)O` [L-carbocysteine], which “frailty index: dermatitis” value ([1]; 307.2 mg/kg/day in drinking water for 23 weeks from 49 weeks of age) is on record?
Answer: Its value is “improves”.

Question: What about the “frailty index: alopecia” value ([1]; 307.2 mg/kg/day in drinking water for 23 weeks from 49 weeks of age, FIG. 22) of the same molecule?
Answer: The value was “improves”.

Question: And the “frailty index: fur color loss (gray hair)” value ([1]; 307.2 mg/kg/day in drinking water for 23 weeks from 49 weeks of age, FIG. 23)?
Answer: The value was “improves”.

Question: What about the “frailty index: physical condition score (bone and muscle)” value ([1]; 307.2 mg/kg/day in drinking water for 23 weeks from 49 weeks of age, FIG. 25) of the same molecule?
Answer: The value was “improvement in physical condition”.

Question: What about the “total score of the frailty index test” value ([1]; 307.2 mg/kg/day in drinking water for 23 weeks from 49 weeks of age, FIG. 26) of the same molecule?
Answer: The value was “improvement in the total value”.
